This test deals with Staphylococcus aureus. The test can be described thus: Antibacterial activity against methicillin-resistant Staphylococcus aureus assessed as bacterial killing at 16 ug/ml by serial dilution method after 24 hrs. Type of test: functional.

The results in this text go back to ChEMBL document CHEMBL1150799, “Vancomycin in vitro bactericidal activity and its relationship to efficacy in clearance of methicillin-resistant Staphylococcus aureus bacteremia” (2007).

With `CN[C@H](CC(C)C)C(=O)N[C@H]1C(=O)N[C@@H](CC(N)=O)C(=O)N[C@H]2C(=O)N[C@H]3C(=O)N[C@H](C(=O)N[C@H](C(=O)O)c4cc(O)cc(O)c4-c4cc3ccc4O)[C@H](O)c3ccc(c(Cl)c3)Oc3cc2cc(c3O[C@@H]2O[C@H](CO)[C@@H](O)[C@H](O)[C@H]2O[C@H]2C[C@](C)(N)[C@H](O)[C@H](C)O2)Oc2ccc(cc2Cl)[C@H]1O` [VANCOMYCIN], the log10CFU/ml was 0.82.
